Data as given in PubChem BioAssay (NCI).
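Cells were grown in 96-well plates and exposed to each compound for 48 hours at five concentrations; endpoints were interpolated linearly between bracketing concentrations, or set to the highest concentration if not reached. TGI: total growth inhibition.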

Legend:
Experiment in all cases: inhibition of tumour cell growth, NCI panel, 48 h
[1] = tested on: UACC-62 melanoma
[2] = tested on: SK-MEL-2 melanoma
[3] = tested on: SF-295 CNS
[4] = tested on: RPMI-8226 leukemia
[5] = tested on: UACC-257 melanoma
[6] = tested on: HCT-15 colon
[7] = tested on: NCI-H460 lung
[8] = tested on: OVCAR-5 ovarian
[9] = tested on: SF-539 CNS
[10] = tested on: SK-MEL-5 melanoma
[11] = tested on: HT29 colon
[12] = tested on: HCC-2998 colon
[13] = tested on: SW-620 colon
[14] = tested on: K-562 leukemia
[15] = tested on: A549 NSCLC
[16] = tested on: LOX IMVI melanoma
[17] = tested on: NCI-H226 lung
[18] = tested on: UO-31 renal
[19] = tested on: SNB-19 CNS
[20] = tested on: SF-268 CNS

Row | SMILES | TGI [1] | TGI [2] | TGI [3] | TGI [4] | TGI [5] | TGI [6] | TGI [7] | TGI [8] | TGI [9] | TGI [10] | TGI [11] | TGI [12] | TGI [13] | TGI [14] | TGI [15] | TGI [16] | TGI [17] | TGI [18] | TGI [19] | TGI [20]
1 | CCCCCCSc1nc(N)nc2nc[nH]c12 | > 100 µM | > 100 µM | > 100 µM | > 100 µM | > 100 µM | > 100 µM | > 100 µM | > 100 µM | > 100 µM | > 62.5 µM | > 100 µM | > 100 µM | > 100 µM | > 100 µM | > 100 µM | > 100 µM | > 85.4 µM | 68.6 µM | > 100 µM | > 100 µM
2 | CCN1c2ccccc2NC(=S)c2c1n[nH]c2-c1ccccc1 | > 100 µM | 60.1 µM | 59.3 µM | 43.9 µM | > 100 µM | 87.9 µM | 77.2 µM | > 100 µM | > 100 µM | 43.2 µM | > 100 µM | 19.3 µM | 84.7 µM | 39.8 µM | 84.5 µM | > 100 µM |  |  |  | 95.6 µM
3 | O=C1CC(/C=C/c2ccco2)=C(O)C1=O | 30.1 µM | 35.1 µM | 40.9 µM | 40.2 µM | 33.2 µM | 31.9 µM | 35.6 µM | 30.1 µM | 31.1 µM | 26.5 µM | 30.4 µM | 31.9 µM | 31.6 µM | 49 µM | 62.8 µM | 25.4 µM | 69.1 µM | 61.3 µM | 30.9 µM | 75 µM
4 | CN(C)C(=O)Oc1c(Br)cc(Br)cc1C(=O)OCc1ccccc1 | 39.4 µM | > 71.2 µM | 55.7 µM | 52.4 µM | 60.2 µM | > 81.7 µM | 56.5 µM | > 100 µM | 53.4 µM | 17.7 µM | 19.2 µM | > 96.5 µM | > 100 µM | > 90.2 µM | > 100 µM | 60.2 µM | > 77.3 µM | 68.9 µM | > 100 µM | > 100 µM
5 | CC1(C)OC[C@H](C(=N)OCc2ccccc2)O1 | > 100 µM | > 100 µM | > 100 µM | > 100 µM | > 100 µM | > 100 µM | > 100 µM | > 100 µM | > 100 µM | > 100 µM | > 100 µM | > 100 µM | > 100 µM | > 100 µM | > 100 µM |  | > 100 µM | > 100 µM | > 100 µM | > 100 µM
6 | CCOC(=O)c1nc2ccc(OC)cc2c2c1Cc1ccccc1-2 | > 100 µM | > 100 µM | > 100 µM | > 100 µM | > 100 µM | > 100 µM | > 100 µM | > 100 µM | > 100 µM | > 100 µM | > 100 µM | > 100 µM | > 100 µM | > 100 µM | > 100 µM | > 100 µM | > 100 µM | > 100 µM | > 100 µM | > 100 µM
7 | C/C(=N\Nc1nc2cc(Cl)ccc2s1)c1ccccn1 | 10.1 µM |  |  | > 32.4 µM | > 100 µM | > 79.9 µM | > 100 µM | > 100 µM | > 100 µM | 13.6 µM |  | > 80.8 µM | 23.7 µM | > 100 µM | > 43.7 µM | 13.5 µM | > 100 µM | 14.8 µM | 15.6 µM | 34.1 µM
8 | COC1/C=C/C=C(/C)Cc2cc(O)c(Cl)c(c2)N(C)C(=O)CC(OC(=O)C(C)C)C2(C)OC2C(C)C2CC1(O)NC(=O)O2 (centres undefined) | > 100 µM | > 43.6 µM | > 100 µM | > 100 µM | > 100 µM |  |  | > 71.2 µM |  | < 0.0116 µM | < 0.01 µM |  | > 100 µM | > 100 µM | > 100 µM | > 100 µM | > 100 µM | > 100 µM | > 100 µM | 44.2 µM
